Active and inactive are the calls of the source. No cut-off for these calls is given here.
Tests used:
[1] = system: HeLa; assay: Drug uptake in human HeLa cells assessed as subcellular localization in endoplasmic reticulum at 10 uM after 6 hrs using blue-fluorescent IAF-tagged streptavidin staining by live cell microscopic analysis; format: ADME, cell-based
[2] = target: T1, Protein kinase C eta type (Homo sapiens, UniProt P24723); assay: Binding affinity to PKCeta in human HeLa cell lysates at 10 nM to 100 uM after 2 hrs by immunoprecipitation analysis
T1 sequence (P24723 whole entry): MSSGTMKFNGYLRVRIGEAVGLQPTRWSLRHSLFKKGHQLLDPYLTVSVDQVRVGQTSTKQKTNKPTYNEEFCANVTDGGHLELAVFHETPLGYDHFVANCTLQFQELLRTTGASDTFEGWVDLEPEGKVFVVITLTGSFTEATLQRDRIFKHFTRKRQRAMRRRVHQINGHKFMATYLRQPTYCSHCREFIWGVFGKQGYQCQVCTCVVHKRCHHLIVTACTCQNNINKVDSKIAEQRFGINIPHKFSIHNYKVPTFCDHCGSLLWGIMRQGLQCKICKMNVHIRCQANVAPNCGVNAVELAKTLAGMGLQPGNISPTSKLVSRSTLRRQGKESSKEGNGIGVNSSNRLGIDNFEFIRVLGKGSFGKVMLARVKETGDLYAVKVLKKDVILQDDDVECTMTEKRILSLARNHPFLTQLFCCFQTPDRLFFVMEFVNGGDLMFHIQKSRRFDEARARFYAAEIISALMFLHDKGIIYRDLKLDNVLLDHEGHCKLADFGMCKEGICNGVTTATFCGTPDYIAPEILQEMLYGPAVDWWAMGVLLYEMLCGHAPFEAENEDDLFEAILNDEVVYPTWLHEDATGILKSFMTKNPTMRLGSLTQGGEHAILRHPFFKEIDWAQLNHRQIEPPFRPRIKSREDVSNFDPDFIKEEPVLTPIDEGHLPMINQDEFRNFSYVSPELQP

[3] = Binding affinity to mouse IAF-labeled immunoglobulin G mAb by immunoaffinity fluorescent method
[4] = system: HeLa; assay: Drug uptake in human HeLa cells assessed as subcellular localization in endoplasmic reticulum at 10 uM after 6 hrs using blue-fluorescent IAF-tagged streptavidin staining by live cell microscopic analysis presence of glycyrrhetic acid; format: ADME, cell-based
[5] = target: T1, Protein kinase C eta type; assay: Binding affinity to recombinant human PKCeta in after 2 hrs by microequilibrium dialysis assay
[6] = system: HeLa; assay: Drug uptake in human HeLa cells assessed as subcellular localization in endoplasmic reticulum at 25 uM after 6 hrs by live cell microscopic analysis; format: ADME, cell-based

Structure (SMILES)	Drug uptake [1]	Activity [2]	Kd [5]	other results
CC1(C)[C@@H](O)CC[C@]2(C)[C@H]3C(=O)C=C4[C@@H]5C[C@@](C)(C(=O)NCCNC(=O)CCCC[C@@H]6SC[C@@H]7NC(=O)N[C@@H]76)CC[C@]5(C)CC[C@@]4(C)[C@]3(C)CC[C@@H]12	Not Active	–	–	–
CN(C)c1ccc2c(CC(=O)NCCNC(=O)[C@@]3(C)CC[C@]4(C)CC[C@]5(C)C(=CC(=O)[C@@H]6[C@@]7(C)CC[C@H](O)C(C)(C)[C@@H]7CC[C@]65C)[C@@H]4C3)cc(=O)oc2c1	Active	–	0.64 µM	Kd [3]: 0.54 µM; Drug uptake [4]: Not Active
C#CCNC(=O)Cc1cc(=O)oc2cc(N(C)C)ccc12	–	inactive	–	–

Second part, led by results:

Drug uptake [1]	Activity [2]	Kd [5]	Structure (SMILES)	other results
–	inactive	–	CC1(C)[C@@H](O)CC[C@]2(C)[C@H]3C(=O)C=C4[C@@H]5C[C@@](C)(C(=O)NCCN=[N+]=[N-])CC[C@]5(C)CC[C@@]4(C)[C@]3(C)CC[C@@H]12	–
–	–	0.25 µM	CC1(C)[C@@H](O)CC[C@]2(C)[C@H]3C(=O)C=C4[C@@H]5C[C@@](C)(C(=O)O)CC[C@]5(C)CC[C@@]4(C)[C@]3(C)CC[C@@H]12 [ENOXOLONE]	Drug uptake [6]: Active

From ChEMBL document CHEMBL1800035, “An optimized immunoaffinity fluorescent method for natural product target elucidation” (J Nat Prod, 2010)
